Reference: PubChem BioAssay (NCI)
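Compound exposure: 48 hours, 5 concentrations, 96-well plates. TGI: concentration producing complete growth inhibition.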

Columns and labels:
Experiment in all cases: NCI tumour cell line growth inhibition, 48 h
NCI-H522 lung = system: NCI-H522 lung
SK-MEL-2 melanoma = system: SK-MEL-2 melanoma
NCI-H226 lung = system: NCI-H226 lung
SK-MEL-5 melanoma = system: SK-MEL-5 melanoma
UACC-257 melanoma = system: UACC-257 melanoma
DU-145 prostate = system: DU-145 prostate
MALME-3M melanoma = system: MALME-3M melanoma
M14 melanoma = system: M14 melanoma
HCC-2998 colon = system: HCC-2998 colon
OVCAR-4 ovarian = system: OVCAR-4 ovarian
COLO 205 colon = system: COLO 205 colon
MOLT-4 leukemia = system: MOLT-4 leukemia
NCI/ADR-RES ovarian = system: NCI/ADR-RES ovarian
NCI-H23 lung = system: NCI-H23 lung
CAKI-1 renal = system: CAKI-1 renal
MCF7 breast = system: MCF7 breast
SF-539 CNS = system: SF-539 CNS
HCT-15 colon = system: HCT-15 colon
U251 CNS = system: U251 CNS
SR leukemia = system: SR leukemia
K-562 leukemia = system: K-562 leukemia
HCT-116 colon = system: HCT-116 colon
MDA-N = system: MDA-N
NCI-H460 lung = system: NCI-H460 lung
BT-549 breast = system: BT-549 breast
UACC-62 melanoma = system: UACC-62 melanoma
MDA-MB-231 breast = system: MDA-MB-231 breast
SK-MEL-28 melanoma = system: SK-MEL-28 melanoma
CCRF-CEM leukemia = system: CCRF-CEM leukemia
A549 NSCLC = system: A549 NSCLC
TK-10 renal = system: TK-10 renal
A498 renal = system: A498 renal
MDA-MB-435 = system: MDA-MB-435
HL-60(TB) leukemia = system: HL-60(TB) leukemia
PC-3 prostate = system: PC-3 prostate
HOP-62 NSCLC = system: HOP-62 NSCLC
OVCAR-3 ovarian = system: OVCAR-3 ovarian
RPMI-8226 leukemia = system: RPMI-8226 leukemia
LOX IMVI melanoma = system: LOX IMVI melanoma
IGROV1 ovarian = system: IGROV1 ovarian
786-0 renal = system: 786-0 renal
SNB-19 CNS = system: SNB-19 CNS
UO-31 renal = system: UO-31 renal
SW-620 colon = system: SW-620 colon
ACHN renal = system: ACHN renal
HOP-92 NSCLC = system: HOP-92 NSCLC
OVCAR-5 ovarian = system: OVCAR-5 ovarian
T-47D breast = system: T-47D breast
EKVX NSCLC = system: EKVX NSCLC
RXF 393 renal = system: RXF 393 renal
SN12C renal = system: SN12C renal
SF-295 CNS = system: SF-295 CNS
KM12 colon = system: KM12 colon
SK-OV-3 ovarian = system: SK-OV-3 ovarian
SNB-75 CNS = system: SNB-75 CNS
OVCAR-8 ovarian = system: OVCAR-8 ovarian
HT29 colon = system: HT29 colon
SF-268 CNS = system: SF-268 CNS

CCOC(=O)c1sc2nc(SC)nc(Nc3ccc4c(c3)OCO4)c2c1N
TGI (NCI-H522 lung): > 100 µM
TGI (SK-MEL-2 melanoma): > 100 µM
TGI (NCI-H226 lung): > 100 µM
TGI (SK-MEL-5 melanoma): > 100 µM
TGI (UACC-257 melanoma): > 100 µM
TGI (DU-145 prostate): > 100 µM
TGI (MALME-3M melanoma): 97.6 µM
TGI (M14 melanoma): > 100 µM
TGI (HCC-2998 colon): > 100 µM
TGI (OVCAR-4 ovarian): > 100 µM
TGI (COLO 205 colon): > 100 µM
TGI (MOLT-4 leukemia): > 100 µM
TGI (NCI/ADR-RES ovarian): > 100 µM
TGI (NCI-H23 lung): > 100 µM
TGI (CAKI-1 renal): > 100 µM
TGI (MCF7 breast): > 100 µM
TGI (SF-539 CNS): > 100 µM
TGI (HCT-15 colon): > 100 µM
TGI (U251 CNS): > 100 µM
TGI (SR leukemia): > 100 µM
TGI (K-562 leukemia): > 100 µM
TGI (HCT-116 colon): > 100 µM
TGI (MDA-N): > 100 µM
TGI (NCI-H460 lung): > 100 µM
TGI (BT-549 breast): > 100 µM
TGI (UACC-62 melanoma): > 100 µM
TGI (MDA-MB-231 breast): > 100 µM
TGI (SK-MEL-28 melanoma): 63.1 µM
TGI (CCRF-CEM leukemia): > 100 µM
TGI (A549 NSCLC): > 100 µM
TGI (TK-10 renal): > 100 µM
TGI (A498 renal): 96.9 µM
TGI (MDA-MB-435): > 100 µM
TGI (HL-60(TB) leukemia): > 100 µM
TGI (PC-3 prostate): > 100 µM
TGI (HOP-62 NSCLC): > 100 µM
TGI (OVCAR-3 ovarian): > 100 µM
TGI (RPMI-8226 leukemia): > 100 µM
TGI (LOX IMVI melanoma): > 100 µM
TGI (IGROV1 ovarian): > 100 µM
TGI (786-0 renal): > 100 µM
TGI (SNB-19 CNS): > 100 µM
TGI (UO-31 renal): > 100 µM
TGI (SW-620 colon): > 100 µM
TGI (ACHN renal): 69.4 µM
TGI (HOP-92 NSCLC): 71.6 µM
TGI (OVCAR-5 ovarian): > 100 µM
TGI (T-47D breast): > 100 µM
TGI (EKVX NSCLC): 77.5 µM
TGI (RXF 393 renal): 31 µM
TGI (SN12C renal): > 100 µM
TGI (SF-295 CNS): 84.8 µM
TGI (KM12 colon): > 100 µM

COc1cc(/C=C2/SC(c3ccccc3)N(c3cc(Cl)ccc3Cl)C2=O)cc(OC)c1OC (stereo not given)
TGI (NCI-H522 lung): > 100 µM
TGI (SK-MEL-2 melanoma): > 100 µM
TGI (NCI-H226 lung): > 100 µM
TGI (SK-MEL-5 melanoma): > 100 µM
TGI (UACC-257 melanoma): > 100 µM
TGI (DU-145 prostate): > 100 µM
TGI (MALME-3M melanoma): > 100 µM
TGI (M14 melanoma): > 100 µM
TGI (HCC-2998 colon): > 100 µM
TGI (OVCAR-4 ovarian): > 100 µM
TGI (SK-OV-3 ovarian): > 100 µM
TGI (COLO 205 colon): > 100 µM
TGI (MOLT-4 leukemia): > 100 µM
TGI (NCI/ADR-RES ovarian): > 100 µM
TGI (NCI-H23 lung): > 100 µM
TGI (CAKI-1 renal): 90.8 µM
TGI (MCF7 breast): > 100 µM
TGI (HCT-15 colon): > 100 µM
TGI (SNB-75 CNS): > 100 µM
TGI (U251 CNS): > 100 µM
TGI (SR leukemia): > 100 µM
TGI (K-562 leukemia): > 100 µM
TGI (HCT-116 colon): > 100 µM
TGI (MDA-N): 37.6 µM
TGI (NCI-H460 lung): > 100 µM
TGI (BT-549 breast): > 100 µM
TGI (OVCAR-8 ovarian): > 100 µM
TGI (UACC-62 melanoma): > 100 µM
TGI (MDA-MB-231 breast): > 100 µM
TGI (SK-MEL-28 melanoma): > 100 µM
TGI (CCRF-CEM leukemia): > 100 µM
TGI (A549 NSCLC): > 100 µM
TGI (TK-10 renal): > 100 µM
TGI (A498 renal): > 100 µM
TGI (MDA-MB-435): 61.1 µM
TGI (HL-60(TB) leukemia): > 100 µM
TGI (PC-3 prostate): > 100 µM
TGI (HOP-62 NSCLC): > 100 µM
TGI (OVCAR-3 ovarian): > 100 µM
TGI (RPMI-8226 leukemia): > 100 µM
TGI (LOX IMVI melanoma): > 100 µM
TGI (IGROV1 ovarian): > 100 µM
TGI (786-0 renal): > 100 µM
TGI (SNB-19 CNS): > 100 µM
TGI (UO-31 renal): > 100 µM
TGI (SW-620 colon): > 100 µM
TGI (ACHN renal): > 100 µM
TGI (HOP-92 NSCLC): > 100 µM
TGI (HT29 colon): > 100 µM
TGI (OVCAR-5 ovarian): > 100 µM
TGI (T-47D breast): > 100 µM
TGI (EKVX NSCLC): > 100 µM
TGI (RXF 393 renal): > 100 µM
TGI (SN12C renal): > 100 µM
TGI (SF-295 CNS): > 100 µM
TGI (KM12 colon): > 100 µM

Cc1cc(C)nc(NS(=O)(=O)c2ccc(NNc3c4ccccc4nc4c(C(=O)Nc5ccc(S(=O)(=O)N=C(N)N)cc5)cccc34)cc2)n1
TGI (NCI-H522 lung): > 100 µM
TGI (SK-MEL-2 melanoma): 61.5 µM
TGI (NCI-H226 lung): > 100 µM
TGI (SK-MEL-5 melanoma): > 100 µM
TGI (UACC-257 melanoma): > 100 µM
TGI (DU-145 prostate): > 100 µM
TGI (MALME-3M melanoma): > 100 µM
TGI (M14 melanoma): > 100 µM
TGI (HCC-2998 colon): > 100 µM
TGI (OVCAR-4 ovarian): > 100 µM
TGI (SK-OV-3 ovarian): > 100 µM
TGI (COLO 205 colon): > 100 µM
TGI (MOLT-4 leukemia): > 100 µM
TGI (NCI/ADR-RES ovarian): > 100 µM
TGI (NCI-H23 lung): > 100 µM
TGI (CAKI-1 renal): > 100 µM
TGI (MCF7 breast): > 100 µM
TGI (SF-539 CNS): > 100 µM
TGI (HCT-15 colon): > 100 µM
TGI (SNB-75 CNS): > 100 µM
TGI (U251 CNS): 96.8 µM
TGI (SR leukemia): 76.1 µM
TGI (K-562 leukemia): > 100 µM
TGI (HCT-116 colon): > 100 µM
TGI (MDA-N): > 100 µM
TGI (NCI-H460 lung): > 100 µM
TGI (BT-549 breast): > 100 µM
TGI (OVCAR-8 ovarian): > 100 µM
TGI (MDA-MB-231 breast): > 100 µM
TGI (SK-MEL-28 melanoma): 85 µM
TGI (SF-268 CNS): > 100 µM
TGI (CCRF-CEM leukemia): 98 µM
TGI (A549 NSCLC): > 100 µM
TGI (TK-10 renal): > 100 µM
TGI (MDA-MB-435): > 100 µM
TGI (HL-60(TB) leukemia): > 100 µM
TGI (PC-3 prostate): > 100 µM
TGI (HOP-62 NSCLC): > 100 µM
TGI (OVCAR-3 ovarian): 96.8 µM
TGI (RPMI-8226 leukemia): > 100 µM
TGI (LOX IMVI melanoma): > 100 µM
TGI (IGROV1 ovarian): > 100 µM
TGI (786-0 renal): > 100 µM
TGI (SNB-19 CNS): > 100 µM
TGI (UO-31 renal): > 100 µM
TGI (SW-620 colon): > 100 µM
TGI (ACHN renal): > 100 µM
TGI (HOP-92 NSCLC): > 100 µM
TGI (HT29 colon): 77.7 µM
TGI (OVCAR-5 ovarian): > 100 µM
TGI (T-47D breast): > 100 µM
TGI (EKVX NSCLC): > 100 µM
TGI (RXF 393 renal): > 100 µM
TGI (SN12C renal): > 100 µM
TGI (SF-295 CNS): > 100 µM
TGI (KM12 colon): > 100 µM
